The source of these data is US9061984B2 (University of Louisville Research Foundation, Inc., priority 2008, dated 2015).

≈ marks a conversion by molar mass, not a printed value. Where “and” joins values, the source holds several entries; their conditions need not be identical. Identical values can stand only once. A value given as a limit tells only on which side of the number the result lay.

The term IC50 denotes the midpoint of a concentration-inhibition curve. The GI50 is the concentration at which growth is held to half of that of the control.

For one data set, the system named is L. braziliensis PER006. Description: Activity against macrophages infected with Leishmania amastigotes. The following applies: Leishmania braziliensis, Macrophage, 48 h, read-out: IC50 L. braziliensis PER006.
Consider `COc1ccc(/C=C/C(=O)c2c(O)cc(O)cc2OC)cc1` [Compound I-05, (E)-1-(2,4-Dihydroxy-6-methoxyphenyl)-3-(4-methoxyphenyl)-2-propen-1-one], for which the 50% inhibitory concentration (IC50) is 7.66 µM.

The next data set concerns L. peruviana LCA08. Described as above. As to conditions: Leishmania peruviana, Macrophage, 48 h, read-out: IC50 L. peruviana LCA08.
Take `COc1ccc(/C=C/C(=O)c2c(O)cc(O)cc2OC)cc1` [Compound I-05, (E)-1-(2,4-Dihydroxy-6-methoxyphenyl)-3-(4-methoxyphenyl)-2-propen-1-one]: the IC50 came to 23 µM.

The subject of another data set is peritoneal macrophages. The experiment in a line: Toxicity to peritoneal macrophages (Trypan Blue count). The data set is classed as cell-based, BALB/C mouse. As to conditions: Mus musculus, Peritoneal macrophage, 48 h; Table 7; read-out: IC50 Macrophage.
Take `COc1ccc(/C=C/C(=O)c2c(O)cc(O)cc2OC)cc1` [Compound I-05, (E)-1-(2,4-Dihydroxy-6-methoxyphenyl)-3-(4-methoxyphenyl)-2-propen-1-one]: the IC50 was 166 µM.

Test system in a further data set: not listed separately
The experiment in a line: Cytotoxicity on VERO cells (MTT), anti-T. cruzi study. The following applies: African green monkey, VERO cells, IC50 - VERO Cytotoxicity, Table 2.
Compound `COc1ccc(/C=C/C(=O)c2c(O)cc(O)cc2OC)cc1` [Compound I-05, (E)-1-(2,4-Dihydroxy-6-methoxyphenyl)-3-(4-methoxyphenyl)-2-propen-1-one] had a 50% inhibitory concentration (IC50) of 5 µg/mL (≈ 16.6 µM).

The next data set relates to HT-29 cells. The experiment in a line: Cell growth inhibition bioassay (sulforhodamine B). Type of data set: cell-based, human. The following applies: Homo sapiens, HT-29; 48 h, SRB; read-out: GI50 in indicated cell line: HT-29. In a few lines: (§1)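 Cells were exposed to compound alongside matched solvent controls, then stained with sulforhodamine B. Percent growth inhibition was calculated from dye absorbance against the control.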
Turning to `COc1ccc(/C=C/C(=O)c2c(O)cc(O)cc2OC)cc1` [Compound I-05, (E)-1-(2,4-Dihydroxy-6-methoxyphenyl)-3-(4-methoxyphenyl)-2-propen-1-one], the concentration for 50% growth inhibition (GI50) turned out to be 21.6 µM.

The test system of a further data set is M-14 cells. Description: Cell growth inhibition bioassay (sulforhodamine B). The data set is classed as cell-based, human. As to conditions: Homo sapiens, M14; 48 h, SRB; read-out: GI50 in indicated cell line: M-14. In a few lines:
as §1
For the compound `COc1ccc(/C=C/C(=O)c2c(O)cc(O)cc2OC)cc1` [Compound I-05, (E)-1-(2,4-Dihydroxy-6-methoxyphenyl)-3-(4-methoxyphenyl)-2-propen-1-one], the concentration for 50% growth inhibition (GI50) is 19.6 µM.

The test system of the next data set is MCF-7 cells. The experiment in a line: Cell growth inhibition bioassay (sulforhodamine B). Type of data set: cell-based, human. The following applies: Homo sapiens, MCF7; 48 h, SRB; read-out: GI50 in indicated cell line: MCF-7. A digest of the protocol:
as §1
For `COc1ccc(/C=C/C(=O)c2c(O)cc(O)cc2OC)cc1` [Compound I-05, (E)-1-(2,4-Dihydroxy-6-methoxyphenyl)-3-(4-methoxyphenyl)-2-propen-1-one], the concentration for 50% growth inhibition (GI50) is 17.3 µM.

The test system of a further data set is K562 cells. Description: Cell growth inhibition bioassay (sulforhodamine B). The data set is classed as cell-based, human. The following applies: Homo sapiens, K562; 48 h, SRB; read-out: GI50 in indicated cell line: K562. In a few lines: as §1
In the case of `COc1ccc(/C=C/C(=O)c2c(O)cc(O)cc2OC)cc1` [Compound I-05, (E)-1-(2,4-Dihydroxy-6-methoxyphenyl)-3-(4-methoxyphenyl)-2-propen-1-one], the 50% growth inhibitory concentration (GI50) was 17 µM.

The subject of another data set is H460 cells. The experiment in a line: Cell growth inhibition bioassay (sulforhodamine B). The data set is classed as cell-based, human. The following applies: Homo sapiens, NCI-H460; 48 h, SRB; read-out: GI50 in indicated cell line: H460. A digest of the protocol: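 Human cancer cells (MCF-7 breast, DU145 and PC3 prostate, H460 large cell lung) were treated with compounds. Growth relative to solvent control was quantified by SRB protein stain.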
`COc1ccc(/C=C/C(=O)c2c(O)cc(O)cc2OC)cc1` [Compound I-05, (E)-1-(2,4-Dihydroxy-6-methoxyphenyl)-3-(4-methoxyphenyl)-2-propen-1-one]: the GI50 worked out at 14 µM.

A further data set deals with DU145 cells. Description: Cell growth inhibition bioassay (sulforhodamine B). Type of data set: cell-based, human. As to conditions: Homo sapiens, DU-145; 48 h, SRB; read-out: GI50 in indicated cell line: DU145. In a few lines:
as §1
As to `COc1ccc(/C=C/C(=O)c2c(O)cc(O)cc2OC)cc1` [Compound I-05, (E)-1-(2,4-Dihydroxy-6-methoxyphenyl)-3-(4-methoxyphenyl)-2-propen-1-one], the GI50 stood at 9 µM.

The next data set has as its system Trypanosoma cruzi (Tulahuen C4). The experiment in a line: In vitro anti-T. cruzi activity (β-galactosidase CPRG colorimetric assay in VERO monolayer). Type of data set: cell-based. As to conditions: 10 μg/mL of each compound, 120 hours.
On to `COc1ccc(/C=C/C(=O)c2c(O)cc(O)cc2OC)cc1` [Compound I-05, (E)-1-(2,4-Dihydroxy-6-methoxyphenyl)-3-(4-methoxyphenyl)-2-propen-1-one], for which the “T. cruzi Inhib. (%)” value is 68.88% and 38.57%.

The data set is the same for the next values; noted with them: Trypanosoma cruzi, TULAHUEN, Vero, Table 2; read-out: IC50 - T. cruzi.
As for `COc1ccc(/C=C/C(=O)c2c(O)cc(O)cc2OC)cc1` [Compound I-05, (E)-1-(2,4-Dihydroxy-6-methoxyphenyl)-3-(4-methoxyphenyl)-2-propen-1-one], the half-inhibitory concentration (IC50) stood at 5.98 µg/mL.

The same data set, now with this note: Trypanosoma cruzi, TULAHUEN, Vero, Table 3; read-out: IC50 T. cruzi.
For the compound `COc1ccc(/C=C/C(=O)c2c(O)cc(O)cc2OC)cc1` [Compound I-05, (E)-1-(2,4-Dihydroxy-6-methoxyphenyl)-3-(4-methoxyphenyl)-2-propen-1-one], the concentration for half-maximal inhibition (IC50) was > 25 µM.

In a further data set the test system is L. amazonensis Lma CL1. Description: Activity against macrophages infected with Leishmania amastigotes. The following applies: Leishmania amazonensis, Macrophage, 48 h, read-out: IC50 L. amazonensis Lma CL1.
Protocol: A cloned line of Leishmania amazonensis(strain MHOM/BR/76/LTB-012) was used in all experiments. Axenically grown amastigote forms of L. amazonensis were maintained by weekly subpassages in MAA/20 medium (Sereno and Lemesre, Antimicrobial Agents and Chemotherapy 41, 972-976 (1997)) at 32±1° C. in 25 cm^2 tissue culture flasks. L. peruviana (strain MHOM/PE/LCA08) and L. braziliensis (strainMHOM/PE/PER006) were maintained in the promastigote stage in a biphasic medium (blood agar with 0.89% NaCl, pH 7.4) at 24° C., with sub-passage every 3 to 4 days. Promastigotes (5×10^6 parasites) were then transferred to 25 cm2 tissue culture flasks containing 5 ml of M199 medium supplemented with 10% foetal bovine serum (FBS), pH 7.4. After 4 days, exponential phase promastigotes were centrifuged for 10 minutes at 1500 g and 4° C. The supernatant was discarded and replaced by fresh M199 medium supplemented with 20% FBS, pH 5.5. Axenic amastigotes transformation was then induced by increasing the temperature to 34° C. and incubating for 96 h (Teixeira et al., Parasitology Research 88, 963-968 (2002)).
Extracted cells were immediately deposited on sterile 4×4 mm cover glasses and placed in each well of a 96-well plate. Plates were incubated for 24 h at 37° C., 5% CO2 to allow cell adhesion (Castillo et al, Journal of Ethnopharmacology 112, 410-414 (2007)). Pre-warmed complete M199 medium was used twice to remove non-adherent cells. A neutral red method (Fautz et al., Mutation Research 253, 173-179 (1991)) was employed to determine cell concentration. Approximately 7×10^4 viable cells were deposited in each well for adhesion.
Infection of macrophages by amastigotes was determined as follows. […] Twelve hours after infection, a solution of the compounds to be tested was added to the cultures at various concentrations and maintained at 37° C. in 5% CO2 for a further forty-eight hours more. The plates were fixed with methanol and stained with 10% Giemsa stain. The percentage of infected macrophages was determined microscopically at 100 times magnification. The number of intracellular amastigotes was determined in 300 cells. Following Delorenzi et al. Antimicrobial Agents and Chemotherapy, 45, 1349-1354 (2001)) the percentage of infection rate (% IR) of each culture was calculated as follows: % IR=100−(infection rate of the treated culture/infection rate of the untreated culture)×100.
All experiments were performed in triplicate. ANOVA was used to test for statistical significance of differences (Epi-Info, Statview student program). The total parasite burden was calculated as a mean number of amastigotes per cells multiplied by the number of infected macrophages.
On to `COc1ccc(/C=C/C(=O)c2c(O)cc(O)cc2OC)cc1` [Compound I-05, (E)-1-(2,4-Dihydroxy-6-methoxyphenyl)-3-(4-methoxyphenyl)-2-propen-1-one], for which the IC50 was determined as 14.3 µM.

The next data set has as its system PC3 cells. The experiment in a line: Cell growth inhibition bioassay (sulforhodamine B). The data set is classed as cell-based. The following applies: Homo sapiens, PC-3; 48 h, SRB; read-out: GI50 in indicated cell line: PC3. The protocol: The cytotoxicity of compounds was assayed as follows. […] Appropriate solvent controls were tested for comparison. The percent inhibition of cell growth relative to the control was evaluated colorimetrically using a sulforhodamine B dye by comparison to the control. The calorimetric procedure followed that published in Skehan et al., J. Nat. Cancer Inst., […], pp. 1107-1112 (1990) and Boyd & Paull, Drug Dev. Res., Vol. 34, pp. 91-109 (1995). […] The cell lines are: 3T3 cells are BALB/3T3 clone A31 embryonic mouse fibroblast cells; H460 cells are human large cell lung cancer cells; DU145 cells are human prostate carcinoma cells; MCF-7 cells are human breast adenocarcinoma cells; M-14 cells are human melanoma cells; HT-29 cells are human colon adenocarcinoma cells; PC3 cells are human prostate adenocarcinoma cells; K562 cells are human chronic myelogenous leukemia cells; and VERO cells are African Green Monkey kidney epithelial cells.
As to `COc1ccc(/C=C/C(=O)c2c(O)cc(O)cc2OC)cc1` [Compound I-05, (E)-1-(2,4-Dihydroxy-6-methoxyphenyl)-3-(4-methoxyphenyl)-2-propen-1-one], the GI50 was 19.3 µM.

A further data set has as its system 3T3 cells. Description: Cell growth inhibition bioassay (sulforhodamine B). Type of data set: cell-based, mouse. As to conditions: Mus musculus, NIH3T3; 48 h, SRB; read-out: GI50 in indicated cell line: 3T3. A digest of the protocol:
as §1
As for `COc1ccc(/C=C/C(=O)c2c(O)cc(O)cc2OC)cc1` [Compound I-05, (E)-1-(2,4-Dihydroxy-6-methoxyphenyl)-3-(4-methoxyphenyl)-2-propen-1-one], the concentration for 50% growth inhibition (GI50) worked out at 6.7 µM.

The test system of another data set is axenic amastigotes of L. amazonensis (strain MHOM/BR/76/LTB-012). The experiment in a line: microbe, parasite or virus in culture. As to conditions: Leishmania amazonensis, 72 h, read-out: IC50 L. amazonensis.
With `COc1ccc(/C=C/C(=O)c2c(O)cc(O)cc2OC)cc1` [Compound I-05, (E)-1-(2,4-Dihydroxy-6-methoxyphenyl)-3-(4-methoxyphenyl)-2-propen-1-one], the IC50 was found to be 10 µM.
